# Measured values taken from patent US20230203045A1, “INHIBITORS OF NEK7 KINASE” (Halia Therapeutics, Inc., priority 2020, published 2023).
# Biological target: T1, full-length recombinant human NEK7 (Homo sapiens, UniProt Q8TDX7)
# T1 construct: full-length recombinant human NEK7; GST (N); purchased SignalChem Nab 09-10G; host or cells: Sf9 insect cells (baculovirus)
# Assay: NEK7 Enzymatic Assay
# Type: biochemical
# Conditions: casein substrate, [33P]-ATP, 2 hours at room temperature
# Experimental: Casein substrate (from bovine milk, hydrolyzed and partially dephosphorylated mixture of α, β and κ caseins, obtained from Sigma Aldrich, catalogue #C4765, diluted in distilled water to a final concentration of 1 mg/mL) and full-length recombinant human NEK7 (expressed by baculovirus in Sf9 insect cells using a N-terminal GST tag, obtained from SignalChem, catalogue #Nab 09-10G, 0.1 μg/μL) were mixed in assay buffer (20 mM Hepes pH 7.5, 10 mM MgCl2, 1 mM EGTA, 0.02% Brij35, 0.02 mg/ml BSA, 0.1 mM Na3VO4, 2 mM DTT, 1% DMSO). Compounds of interest (serial 3-fold dilution in DMSO from 10 μM to 0.5 nM) or vehicle (1% DMSO) were dispensed into the kinase reaction mixture by Acoustic technology (Echo550; nanoliter range). After incubation at room temperature for 20 minutes, the kinase reaction was initiated by addition of [^33P]-ATP (specific activity 10 μCi/μl) and the mixture was incubated at room temperature for 2 hours. The reaction was then stopped by spotting the reaction mixture on strips of phosphocellulose P81 paper. Following washing, the radioactivity of the P81 paper was measured and kinase activity data were expressed as the percent remaining kinase activity in test samples compared to vehicle reactions. IC50 values and curve fits were obtained using Prism (GraphPad Software).
# T1 sequence (Q8TDX7 whole entry): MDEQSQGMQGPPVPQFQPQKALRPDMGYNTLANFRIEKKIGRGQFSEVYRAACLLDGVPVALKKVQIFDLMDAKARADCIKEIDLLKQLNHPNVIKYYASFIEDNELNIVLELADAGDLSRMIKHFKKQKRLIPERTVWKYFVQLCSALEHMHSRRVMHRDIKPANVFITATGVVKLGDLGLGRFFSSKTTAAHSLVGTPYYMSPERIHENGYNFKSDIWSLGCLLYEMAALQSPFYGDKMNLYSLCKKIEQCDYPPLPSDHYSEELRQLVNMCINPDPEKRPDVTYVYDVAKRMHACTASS
row,IC50,SMILES
1,> 501 nM,"CC(C)n1nc(-c2ccc(NC(=O)Nc3cc(C(C)(C)C)no3)c(Cl)c2)c2c(N)ncnc21 [Example 6, 1-(4-(4-amino-1-isopropyl-1H-pyrazolo[3,4-d]pyrimidin-3-yl)-2-chlorophenyl)-3-(3-(tert-butyl)isoxazol-5-yl)urea]"
2,> 501 nM,"CC(C)(C)c1cc(NC(=O)Nc2ccc(-c3nn(C4CC(F)(F)C4)c4ncnc(N)c34)cc2F)on1 [Example 16, 1-(4-(4-amino-1-(3,3-difluorocyclobutyl)-1H-pyrazolo[3,4-d]pyrimidin-3-yl)-2-fluorophenyl)-3-(3-(tert-butyl)isoxazol-5-yl)urea]"
3,> 501 nM,"CC(C)(F)c1cc(NC(=O)Nc2ccc(-c3nn(C4CC4)c4ncnc(N)c34)cc2F)on1 [Example 27, 1-(4-(4-amino-1-cyclopropyl-1H-pyrazolo[3,4-d]pyrimidin-3-yl)-2-fluorophenyl)-3-(3-(2-fluoropropan-2-yl)isoxazol-5-yl)urea]"
4,> 501 nM,"Cn1nc(-c2ccc(NC(=O)Nc3cc(C(C)(C)C)no3)c(Cl)c2)c2c(N)ncnc21 [Example 28, 1-(4-(4-amino-1-methyl-1H-pyrazolo[3,4-d]pyrimidin-3-yl)-2-chlorophenyl)-3-(3-(tert-butyl)isoxazol-5-yl)urea]"
5,> 501 nM,"CC(C)(C)c1cc(NC(=O)Nc2ccc(-c3nn(C4CC4)c4ccnc(N)c34)cc2)on1 [Example 31, 1-(4-(4-amino-1-cyclopropyl-1H-pyrazolo[4,3-c]pyridin-3-yl)phenyl)-3-(3-(tert-butyl)isoxazol-5-yl)urea]"
6,> 501 nM,"CC(C)(C)c1csc(NC(=O)Nc2ccc(-c3nn(C4CC4)c4ncnc(N)c34)cc2F)n1 [Example 34, 1-(4-(4-amino-1-cyclopropyl-1H-pyrazolo[3,4-d]pyrimidin-3-yl)-2-fluorophenyl)-3-(4-(tert-butyl)thiazol-2-yl)urea]"
7,> 501 nM,"CC(C)(C)c1cc(NC(=O)Nc2ccc(-c3nn(C4CC4)c4ncnc(N)c34)cc2F)sn1 [Example 35, 1-(4-(4-amino-1-cyclopropyl-1H-pyrazolo[3,4-d]pyrimidin-3-yl)-2-fluorophenyl)-3-(3-(tert-butyl)isothiazol-5-yl)urea]"
8,> 501 nM,"CC(C)(C)c1nnc(NC(=O)Nc2ccc(-c3nn(C4CC4)c4ncnc(N)c34)cc2F)o1 [Example 36, 1-(4-(4-amino-1-cyclopropyl-1H-pyrazolo[3,4-d]pyrimidin-3-yl)-2-fluorophenyl)-3-(5-(tert-butyl)-1,3,4-oxadiazol-2-yl)urea]"
9,> 501 nM,"CC(C)(C)c1nsc(NC(=O)Nc2ccc(-c3nn(C4CC4)c4ncnc(N)c34)cc2F)n1 [Example 37, 1-(4-(4-amino-1-cyclopropyl-1H-pyrazolo[3,4-d]pyrimidin-3-yl)-2-fluorophenyl)-3-(3-(tert-butyl)-1,2,4-thiadiazol-5-yl)urea]"
10,> 501 nM,"CC(C)(C)n1cnc(NC(=O)Nc2ccc(-c3nn(C4CC4)c4ncnc(N)c34)cc2F)n1 [Example 38, 1-(4-(4-amino-1-cyclopropyl-1H-pyrazolo[3,4-d]pyrimidin-3-yl)-2-fluorophenyl)-3-(1-(tert-butyl)-1H-1,2,4-triazol-3-yl)urea]"
11,301 to 500 nM,"CCC(CC)c1cc(NC(=O)Nc2ccc(-c3nn(C4CC4)c4ncnc(N)c34)cc2F)on1 [Example 40, 1-(4-(4-amino-1-cyclopropyl-1H-pyrazolo[3,4-d]pyrimidin-3-yl)-2-fluorophenyl)-3-(3-(pentan-3-yl)isoxazol-5-yl)urea]"
12,< 150 nM,"CC(C)c1cc(NC(=O)Nc2ccc(-c3nn(C4CC4)c4ncnc(N)c34)cc2F)on1 [Example 41, 1-(4-(4-amino-1-cyclopropyl-1H-pyrazolo[3,4-d]pyrimidin-3-yl)-2-fluorophenyl)-3-(3-isopropylisoxazol-5-yl)urea]"
13,151 to 300 nM,"CCc1cc(NC(=O)Nc2ccc(-c3nn(C4CC4)c4ncnc(N)c34)cc2F)on1 [Example 42, 1-(4-(4-amino-1-cyclopropyl-1H-pyrazolo[3,4-d]pyrimidin-3-yl)-2-fluorophenyl)-3-(3-ethylisoxazol-5-yl)urea]"
14,< 150 nM,"Nc1ncnc2c1c(-c1ccc(NC(=O)Nc3cc(C4(C(F)(F)F)CC4)no3)c(F)c1)nn2C1CC(O)C1 (stereo not shown) [Example 46, 1-(4-(4-amino-1-(3-hydroxycyclobutyl)-1H-pyrazolo[3,4-d]pyrimidin-3-yl)-2-fluorophenyl)-3-(3-(1-(trifluoromethyl)cyclopropyl)isoxazol-5-yl)urea]"
15,> 501 nM,"CN1CC(n2nc(-c3ccc(NC(=O)Nc4cc(C5(C(F)(F)F)CC5)no4)c(F)c3)c3c(N)ncnc32)C1 [Example 49, 1-(4-(4-amino-1-(1-methylazetidin-3-yl)-1H-pyrazolo[3,4-d]pyrimidin-3-yl)-2-fluorophenyl)-3-(3-(1-(trifluoromethyl)cyclopropyl)isoxazol-5-yl)urea]"
16,301 to 500 nM,"Nc1ncnc2c1c(-c1cc(F)c(NC(=O)Nc3cc(C4(C(F)(F)F)CC4)no3)cc1F)nn2C1CC1 [Example 50, 1-(4-(4-amino-1-cyclopropyl-1H-pyrazolo[3,4-d]pyrimidin-3-yl)-2,5-difluorophenyl)-3-(3-(1-(trifluoromethyl)cyclopropyl)isoxazol-5-yl)urea]"
17,< 150 nM,"CC(C)(C#N)c1cc(NC(=O)Nc2ccc(-c3nn(C4CC4)c4ncnc(N)c34)cc2F)on1 [Example 52, 1-(4-(4-amino-1-cyclopropyl-1H-pyrazolo[3,4-d]pyrimidin-3-yl)-2-fluorophenyl)-3-(3-(2-cyanopropan-2-yl)isoxazol-5-yl)urea]"
18,> 501 nM,"Nc1ncnc2c1c(-c1ccc(NC(=O)Nc3cc(CO)no3)c(F)c1)nn2C1CC1 [Example 53, 1-(4-(4-amino-1-cyclopropyl-1H-pyrazolo[3,4-d]pyrimidin-3-yl)-2-fluorophenyl)-3-(3-(hydroxymethyl)isoxazol-5-yl)urea]"
19,151 to 300 nM,"Nc1nccc2c1c(-c1ccc(NC(=O)Nc3cc(C4(C(F)(F)F)CC4)no3)nc1)nn2C1CC1 [Example 54, 1-(5-(4-amino-1-cyclopropyl-1H-pyrazolo[4,3-c]pyridin-3-yl)pyridin-2-yl)-3-(3-(1-(trifluoromethyl)cyclopropyl)isoxazol-5-yl)urea]"
20,< 150 nM,"Nc1ncnc2c1c(-c1ccc(NC(=O)Nc3cc(C4(C(F)(F)F)CC4)no3)c(F)c1)nn2CCO [Example 55, 1-(4-(4-amino-1-(2-hydroxyethyl)-1H-pyrazolo[3,4-d]pyrimidin-3-yl)-2-fluorophenyl)-3-(3-(1-(trifluoromethyl)cyclopropyl)isoxazol-5-yl)urea]"
21,151 to 300 nM,"COCCn1nc(-c2ccc(NC(=O)Nc3cc(C4(C(F)(F)F)CC4)no3)c(F)c2)c2c(N)ncnc21 [Example 57, 1-(4-(4-amino-1-(2-methoxyethyl)-1H-pyrazolo[3,4-d]pyrimidin-3-yl)-2-fluorophenyl)-3-(3-(1-(trifluoromethyl)cyclopropyl)isoxazol-5-yl)urea]"
22,151 to 300 nM,"COCCn1nc(-c2ccc(NC(=O)Nc3cc(C4(C(F)(F)F)CC4)on3)c(F)c2)c2c(N)ncnc21 [Example 58, 1-(4-(4-amino-1-(2-methoxyethyl)-1H-pyrazolo[3,4-d]pyrimidin-3-yl)-2-fluorophenyl)-3-(5-(1-(trifluoromethyl)cyclopropyl)isoxazol-3-yl)urea]"
23,> 501 nM,"Cc1cc(-c2nn(C3CC3)c3ncnc(N)c23)ccc1NC(=O)Nc1cc(C2(C(F)(F)F)CC2)on1 [Example 59, 1-(4-(4-amino-1-cyclopropyl-1H-pyrazolo[3,4-d]pyrimidin-3-yl)-2-methylphenyl)-3-(5-(1-(trifluoromethyl)cyclopropyl)isoxazol-3-yl)urea]"
24,< 150 nM,"Nc1ncnc2c1c(-c1ccc(NC(=O)Nc3cc(C4(C(F)(F)F)CC4)on3)c(F)c1)nn2C1CC(O)C1 (stereo not shown) [Example 60, 1-(4-(4-amino-1-(3-hydroxycyclobutyl)-1H-pyrazolo[3,4-d]pyrimidin-3-yl)-2-fluorophenyl)-3-(5-(1-(trifluoromethyl)cyclopropyl)isoxazol-3-yl)urea]"
25,> 501 nM,"Nc1nccc2c1c(-c1ccc(NC(=O)Nc3cc(C4(C(F)(F)F)CC4)on3)c(F)c1)nn2C1CC1 [Example 61, 1-(4-(4-amino-1-cyclopropyl-1H-pyrazolo[4,3-c]pyridin-3-yl)-2-fluorophenyl)-3-(5-(1-(trifluoromethyl)cyclopropyl)isoxazol-3-yl)urea]"
26,301 to 500 nM,"Nc1ncnc2c1c(-c1cc(F)c(NC(=O)Nc3cc(C4(C(F)(F)F)CC4)on3)cc1F)nn2C1CC1 [Example 62, 1-(4-(4-amino-1-cyclopropyl-1H-pyrazolo[3,4-d]pyrimidin-3-yl)-2,5-difluorophenyl)-3-(5-(1-(trifluoromethyl)cyclopropyl)isoxazol-3-yl)urea]"
27,> 501 nM,"Nc1ncnc2c1c(-c1ccc(NC(=O)Nc3cc(C4(C(F)(F)F)CC4)on3)c(CO)c1)nn2C1CC1 [Example 63, 1-(4-(4-amino-1-cyclopropyl-1H-pyrazolo[3,4-d]pyrimidin-3-yl)-2-(hydroxymethyl)phenyl)-3-(5-(1-(trifluoromethyl)cyclopropyl)isoxazol-3-yl)urea]"
28,151 to 300 nM,"Nc1ncnc2c1c(-c1ccc(NC(=O)Nc3cc(C4(C(F)(F)F)CC4)on3)nc1)nn2C1CC1 [Example 64, 1-(5-(4-amino-1-cyclopropyl-1H-pyrazolo[3,4-d]pyrimidin-3-yl)pyridin-2-yl)-3-(5-(1-(trifluoromethyl)cyclopropyl)isoxazol-3-yl)urea]"
